According to PubChem BioAssay AID1963431 (Molecular Pharmacology Branch, DTP, NCI, 2024):
Several values for one entry are separate records, joined by “and”; a condition that tells them apart may be missing. Equal entries are not always repeated.

Tested on: Rh18 complex spheroid viability, percent test/control
Assay: Anticancer human tumor Rh18 cell line growth inhibition [Asc];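 also: spheroids exposed to compound for 7 days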;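 as to viability, T/C: 100% = DMSO vehicle control wells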
Conditions: for viability, T/C: stronger effect = lower value
How it was run: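 Concentration series start at each agent's clinical Cmax, or at 10 microM when none is established, and drop in half-log steps; agents are applied alone or together to complex spheroids built with HUVEC and hMSC.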

CCN1C(C(=O)NC23CCC(C(=O)O)(CC2)CC3)C(c2cccc(Cl)c2F)C2(C(=O)Nc3cc(Cl)ccc32)C12CCCCC2 (configuration not stated) + CNC(C)C(=O)NC1CN(S(=O)(=O)c2cccc(S(=O)(=O)N3CCC4CCC(C(=O)NC(c5ccccc5)c5ccccc5)N4C(=O)C(NC(=O)C(C)NC)C3)c2)CCC2CCC(C(=O)NC(c3ccccc3)c3ccccc3)N2C1=O
IC50 (curve of first compound, second compound 0.01 µM): < 9.49 nM | IC50 (curve of first compound, second compound 0.0316 µM): < 9.49 nM | IC50 (curve of first compound, second compound 0.1 µM): < 9.49 nM | IC50 (curve of first compound, second compound 0.316 µM): < 9.49 nM | IC50 (curve of first compound, second compound 1 µM): < 9.49 nM | viability, T/C (second compound 0.01 µM, first compound 0.00949 µM): 33% | viability, T/C (second compound 0.01 µM, first compound 0.03 µM): 26.5% | viability, T/C (second compound 0.01 µM, first compound 0.0949 µM): 19.7% | viability, T/C (second compound 0.01 µM, first compound 0.3 µM): 11.7% | viability, T/C (second compound 0.01 µM, first compound 0.949 µM): 10.8% | viability, T/C (second compound 0.01 µM, first compound 3 µM): 7.5% | viability, T/C (second compound 0.0316 µM, first compound 0.00949 µM): 28.5% | viability, T/C (second compound 0.0316 µM, first compound 0.03 µM): 21.7% | viability, T/C (second compound 0.0316 µM, first compound 0.0949 µM): 16.3% | viability, T/C (second compound 0.0316 µM, first compound 0.3 µM): 11.6% | viability, T/C (second compound 0.0316 µM, first compound 0.949 µM): 10.3% | viability, T/C (second compound 0.0316 µM, first compound 3 µM): 7.98% | viability, T/C (second compound 0.1 µM, first compound 0.00949 µM): 20.6% | viability, T/C (second compound 0.1 µM, first compound 0.03 µM): 18.6% | viability, T/C (second compound 0.1 µM, first compound 0.0949 µM): 14.6% | viability, T/C (second compound 0.1 µM, first compound 0.3 µM): 13.5% | viability, T/C (second compound 0.1 µM, first compound 0.949 µM): 10.5% | viability, T/C (second compound 0.1 µM, first compound 3 µM): 8.21% | viability, T/C (second compound 0.316 µM, first compound 0.00949 µM): 21% | viability, T/C (second compound 0.316 µM, first compound 0.03 µM): 18.1% | viability, T/C (second compound 0.316 µM, first compound 0.0949 µM): 17.7% | viability, T/C (second compound 0.316 µM, first compound 0.3 µM): 14.1% | viability, T/C (second compound 0.316 µM, first compound 0.949 µM): 9.49% | viability, T/C (second compound 0.316 µM, first compound 3 µM): 10.4% | viability, T/C (second compound 1 µM, first compound 0.00949 µM): 19.9% | viability, T/C (second compound 1 µM, first compound 0.03 µM): 17.2% | viability, T/C (second compound 1 µM, first compound 0.0949 µM): 15.9% | viability, T/C (second compound 1 µM, first compound 0.3 µM): 13.7% | viability, T/C (second compound 1 µM, first compound 0.949 µM): 11.8% | viability, T/C (second compound 1 µM, first compound 3 µM): 9.28%

Cn1ncnc1[C@H]1c2n[nH]c(=O)c3cc(F)cc(c23)N[C@@H]1c1ccc(F)cc1
viability, T/C (compound 0.000316 µM): 113% and 102% and 90.3% | viability, T/C (compound 0.001 µM): 101% and 99.1% and 69.5% | viability, T/C (compound 0.00316 µM): 79.1% and 73.3% and 49.3% | viability, T/C (compound 0.01 µM): 51.2% and 49.3% and 46.3% | viability, T/C (compound 0.0316 µM): 41.5% and 46.6% and 46.8% | viability, T/C (compound 0.1 µM): 41.6% and 51.8% and 40.3% | IC50 (curve of compound): 12.9 nM and 10.8 nM and 3.16 nM

COc1c(OCCCN2CCOCC2)ccc2c3n(c(=NC(=O)c4cnc(N)nc4)nc12)CCN3 + CCN1C(C(=O)NC23CCC(C(=O)O)(CC2)CC3)C(c2cccc(Cl)c2F)C2(C(=O)Nc3cc(Cl)ccc32)C12CCCCC2
IC50 (curve of first compound, second compound 0.03 µM): < 3.16 nM | IC50 (curve of first compound, second compound 0.0949 µM): < 3.16 nM | IC50 (curve of first compound, second compound 0.3 µM): < 3.16 nM | IC50 (curve of first compound, second compound 0.949 µM): < 3.16 nM | IC50 (curve of first compound, second compound 3 µM): < 3.16 nM | viability, T/C (second compound 0.03 µM, first compound 0.00316 µM): 36.4% | viability, T/C (second compound 0.03 µM, first compound 0.01 µM): 27.2% | viability, T/C (second compound 0.03 µM, first compound 0.0316 µM): 15.1% | viability, T/C (second compound 0.03 µM, first compound 0.1 µM): 6.81% | viability, T/C (second compound 0.03 µM, first compound 0.316 µM): 3.01% | viability, T/C (second compound 0.03 µM, first compound 1 µM): 0.78% | viability, T/C (second compound 0.0949 µM, first compound 0.00316 µM): 17.8% | viability, T/C (second compound 0.0949 µM, first compound 0.01 µM): 16.1% | viability, T/C (second compound 0.0949 µM, first compound 0.0316 µM): 9.67% | viability, T/C (second compound 0.0949 µM, first compound 0.1 µM): 4.3% | viability, T/C (second compound 0.0949 µM, first compound 0.316 µM): 1.95% | viability, T/C (second compound 0.0949 µM, first compound 1 µM): 0.74% | viability, T/C (second compound 0.3 µM, first compound 0.00316 µM): 11% | viability, T/C (second compound 0.3 µM, first compound 0.01 µM): 11% | viability, T/C (second compound 0.3 µM, first compound 0.0316 µM): 6.7% | viability, T/C (second compound 0.3 µM, first compound 0.1 µM): 3.81% | viability, T/C (second compound 0.3 µM, first compound 0.316 µM): 1.38% | viability, T/C (second compound 0.3 µM, first compound 1 µM): 0.96% | viability, T/C (second compound 0.949 µM, first compound 0.00316 µM): 10.3% | viability, T/C (second compound 0.949 µM, first compound 0.01 µM): 9.29% | viability, T/C (second compound 0.949 µM, first compound 0.0316 µM): 5.17% | viability, T/C (second compound 0.949 µM, first compound 0.1 µM): 2.9% | viability, T/C (second compound 0.949 µM, first compound 0.316 µM): 1.19% | viability, T/C (second compound 0.949 µM, first compound 1 µM): 0.83% | viability, T/C (second compound 3 µM, first compound 0.00316 µM): 10.2% | viability, T/C (second compound 3 µM, first compound 0.01 µM): 8.55% | viability, T/C (second compound 3 µM, first compound 0.0316 µM): 7.12% | viability, T/C (second compound 3 µM, first compound 0.1 µM): 3.01% | viability, T/C (second compound 3 µM, first compound 0.316 µM): 3.28% | viability, T/C (second compound 3 µM, first compound 1 µM): 1.16%
